# In patent US20250099393A1, “IONIZABLE LIPIDS, LIPID NANOPARTICLES, AND USES THEREOF” (Verily Life Sciences LLC, priority 2022, published 2025):
# Assay: pKa of the ionizable lipid (ethanolamine headgroup)
# Type: physicochemical
# Settings: uncharged at physiological pH
compound,measurement,value
CCCCC/C=C\C/C=C\CCCCCCCCOC(=O)CCCCCCCN(CCO)CCCCCCCC(=O)OC(CCCCCCCC)CCCCCCCC [PCTA-1],pKa,6.2 to 6.8
